What was measured:
[1] = Permanence of PCA in mucosal tissue after topical application (general statements); type: in vivo
[2] = Determination of PCA permanence on the nasal mucosa (HPLC recovery after applying gel); type: in vivo, human
Method: The samples were taken at various time points after administration, in order to accurately collect all the material present on the mucosa. After restoring to a certain volume of water (20 ml), the suspension obtained was filtered, and then 20 μl were injected into a chromatograph for quantitative analysis. A Waters liquid chromatograph with the following parameters was used: • Column: μBondapack C18 • Mobile phase: 0.1 M phosphoric acid at pH 3 with sodium hydroxide. • Flow: 1.5 ml/min • Detector: Spectrophotometer at 210 nm

[3] = Hygroscopic test according to Farmacopea Ufficiale Italiana (FUI) XII; type: physicochemical; settings: 5.00 g dried sample, 25° C., 24 hours
Method: The determination of hygroscopicity of the combination of PCA and hyaluronic acid was performed, a test related to the hydration capability of a compound or mixture of compounds, to evaluate the synergism of the combination of PCA and hyaluronic acid for use in the treatment and/or prevention of dryness and irritation of the mucosae. […] At the end of the procedure, the contained was closed with its lid and weighed again (m3).

For `O=C1CCC(C(=O)O)N1` (centres unmarked) [PCA, Pyrrolidone carboxylic acid], the “Administered amount of PCA identified in mucosal tissues” value ([1]; 4 hours after a topical application of the formulations of the invention) was “approximately 80%”, the “Time PCA remains in the mucosae” value ([1]; after topical application) was > 4 h and the “PCA percentage present in the nasal mucosa, % of recovery based on the standard” value ([2]; T = 0 after administration, 100 mg gel of Example 2 (1% PCA, 0.05% hyaluronic acid) on nasal mucosa) was 95% n = 1. For the same compound, the “PCA percentage present in the nasal mucosa, % of recovery based on the standard” value ([2]; T = 60 after administration, 100 mg gel of Example 2 on nasal mucosa) was 80% n = 2, the “PCA percentage present in the nasal mucosa, % of recovery based on the standard” value ([2]; T = 120 after administration, 100 mg gel of Example 2 on nasal mucosa) was 78% n = 2 and the “PCA percentage present in the nasal mucosa, % of recovery based on the standard” value ([2]; T = 180 after administration, 100 mg gel of Example 2 on nasal mucosa) was 70% n = 3. For the same compound, the “Time PCA is present on the nasal mucosa after application” value ([2]; gel formulation from Example 2 on the nasal mucosa) was ≥ 4 h.

With Hyaluronic acid [100% HA] the “Result (hygroscopicity class)” value [3] was “hygroscopic”, the “Water adsorption (%) (average of the triplicate)” value [3] was 6.00% and the “Water adsorption (g) (average of the triplicate)” value [3] was 0.30 g. For the same compound, the “Final Weight” value ([3]; desiccator with saturated ammonium chloride or ammonium sulfate solution) was 5.30 ± 0.05 g.

— patent US20180344696A1, “SYNERGISTIC COMBINATION OF PYRROLIDONE CARBOXYLIC ACID AND/OR SALTS THEREOF AND HYALURONIC ACID AND/OR SALTS THEREOF, FOR USE IN THE TREATMENT AND/OR PREVENTION OF DRYNESS AND IRRITATION OF THE MUCOSAE, AND RELATED PHARMACEUTICAL FORMULATIONS” (LABORATORI BALDACCI S.P.A., priority 2015, published 2018)
